Paper PMC8861568, “Identification of (Z)-2-benzylidene-dihydroimidazothiazolone derivatives as tyrosinase inhibitors: Anti-melanogenic effects and in silico studies” (Computational and Structural Biotechnology Journal, 2022)
“Also recorded” adds a separate entry of the source.

What was measured:
[1] = biological target: mushroom tyrosinase (mTYR) (Agaricus bisporus, UniProt C7FF04); experiment: Kinetics of mTYR inhibition (Lineweaver-Burk plots); type: biochemical; conditions: for mode of mTYR inhibition: Lineweaver-Burk plots, L-tyrosine; for Vmax: independent of inhibitor concentration
Method: Lineweaver-Burk double reciprocal plots were used to determine their inhibitory modes of action. Kinetic analyses were carried out using four concentrations of DHIT derivatives 1b (0, 0.0625, 0.125, or 0.25 μM) and 1f (0, 1, 2, or 4 μM) in the presence of different concentrations of L-tyrosine (0.5, 1, 2, 4, 8, or 16 mM for 1b and 1, 2, 4, or 8 mM for 1f). Lineweaver-Burk double reciprocal plots produced four different lines with different slopes, corresponding to the four concentrations, for each derivative. […] KM values were 1.515, 7.846, 15.740, and 23.586 mM at […], and 3.758, 4.892, 5.206, and 8.127 mM at 0, 1, 2, and 4 μM of 1f, respectively. […] The binding abilities of compounds 1b and 1f to the active site of tyrosinase were also supported by in silico docking simulation results (Figs. 5 and 6).
Lineweaver-Burk plots were used to determine modes of mTYR inhibition. Compounds 1b or 1f (10 μL, final concentrations: 0, 0.0625, 0.125, or 0.25 μM for 1b and 0, 1, 2 or 4 μM for 1f) and mTYR solution (20 μL, 150 units) were added to a 96-well plate containing 170 μL of a mixture containing aqueous L-tyrosine solution at final concentrations of 0.5, 1.0, 2.0, 4.0, 8.0, or 16 mM for 1b or 1.0, 2.0, 4.0, or 8.0 mM for 1f; aqueous L-tyrosine solution, distilled water, and 50 mM potassium phosphate buffer (pH 6.5) in the ratio 10:9:10. Initial rates of dopachrome formations in reaction mixtures were calculated by measuring increases in optical density at 492 nm (ΔOD492/min) using a microplate reader (VersaMax^TM, Molecular Devices, Sunnyvale, CA, USA). Maximum velocities of tyrosinase-L-tyrosine reactions were determined using Lineweaver-Burk plots (inverse of reaction velocity (1/V) versus the inverse of L-tyrosine concentration (1/[S])) obtained using 4 – 5 different concentrations of L-tyrosine. Modes of tyrosinase inhibition were determined using convergence points of plots.

[2] = biological target: T1, tyrosinase in B16F10 cells (Mus musculus, UniProt P11344); experiment: Cellular tyrosinase inhibition assay in B16F10 cells; type: cell-based, murine; conditions: 48 h; for cellular tyrosinase activity: 5, 10, 20 μM, α-MSH 1 μM + IBMX 200 μM
T1 construct: endogenous in cells; host or cells: B16F10 murine melanoma cells (ATCC), stimulated with alpha-MSH and IBMX
T1 sequence (P11344 19-533): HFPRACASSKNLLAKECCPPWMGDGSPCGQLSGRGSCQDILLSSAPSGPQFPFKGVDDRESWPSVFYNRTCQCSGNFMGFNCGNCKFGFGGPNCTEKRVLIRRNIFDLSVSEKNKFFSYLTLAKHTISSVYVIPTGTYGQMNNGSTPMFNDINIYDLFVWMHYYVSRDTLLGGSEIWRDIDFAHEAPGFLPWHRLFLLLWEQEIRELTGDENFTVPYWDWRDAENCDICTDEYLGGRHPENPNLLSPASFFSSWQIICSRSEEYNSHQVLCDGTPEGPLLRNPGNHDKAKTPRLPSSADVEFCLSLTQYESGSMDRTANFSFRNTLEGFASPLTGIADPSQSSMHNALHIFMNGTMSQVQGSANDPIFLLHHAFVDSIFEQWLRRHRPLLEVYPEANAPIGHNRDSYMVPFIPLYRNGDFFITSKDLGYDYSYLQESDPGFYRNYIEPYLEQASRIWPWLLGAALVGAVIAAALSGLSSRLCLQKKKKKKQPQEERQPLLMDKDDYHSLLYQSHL
Method: B16F10 cells co-stimulated with α -melanocyte-stimulating hormone (α -MSH) and 3-isobutyl-1-methylxanthine (IBMX) were used to investigate the inhibitory effects of compounds 1b and 1f on mammal cellular tyrosinase. Kojic acid was used as the positive control. […] Cellular tyrosinase activities were determined by measuring optical densities at 492 nm.
Cellular tyrosinase inhibition assays were conducted as previously described with minor modification. B16F10 cells were seeded at a density of 1 × 10^5 cells/well in 6-well plates and incubated in a humidified 5% CO2 atmosphere for 24 h at 37 °C. […] Cells were then washed twice with PBS, lysed by adding 45 mM of phosphate buffer (100 µL) containing 1% Triton X-100 (5 µL) and 1% PMSF (5 µL, phenylmethylsulfonyl fluoride) and frozen at −80 °C for 1 h. Lysates were clarified by centrifugation at 12,000 rpm for 30 min at 4 °C. Cell lysate supernatants (80 µL/well) in a 96-well plate were then mixed with 20 µL of L-DOPA (2 mg/mL in distilled water) and incubated for 30 min at 37 °C. Absorbances of reaction mixtures at 492 nm were recorded using a microplate reader (VersaMax^TM, Molecular Devices, Sunnyvale, CA, USA). Kojic acid was used as the positive control. Protein concentrations were determined using Bicinchoninic Acid (BCA) protein assay reagent using Bovine Serum Albumin (BSA) as the standard (Thermo Scientific, Rockford, IL, USA). All experiments were independently conducted three times.

mushroom tyrosinase (mTYR), sequence (C7FF04 1-392): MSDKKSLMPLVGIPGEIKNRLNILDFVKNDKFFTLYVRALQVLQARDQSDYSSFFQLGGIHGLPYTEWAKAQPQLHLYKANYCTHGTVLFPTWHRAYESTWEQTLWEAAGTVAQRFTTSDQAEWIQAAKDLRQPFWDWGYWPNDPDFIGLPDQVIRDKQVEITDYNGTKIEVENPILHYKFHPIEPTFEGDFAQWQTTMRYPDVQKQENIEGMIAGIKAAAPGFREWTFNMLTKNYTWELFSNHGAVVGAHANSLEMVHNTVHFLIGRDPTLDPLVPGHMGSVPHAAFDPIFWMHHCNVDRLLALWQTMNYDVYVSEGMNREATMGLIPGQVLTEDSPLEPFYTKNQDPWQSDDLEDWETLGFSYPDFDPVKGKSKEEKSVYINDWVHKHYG

Compound: COc1ccc(/C=c2\sc3n(c2=O)CCN=3)cc1O [Compound 1f, (Z)-2-(3-Hydroxy-4-methoxybenzylidene)-5,6-dihydroimidazo[2,1-b]thiazol-3(2H)-one]
- mode of mTYR inhibition [1]: competitive inhibitors; also recorded: competitively inhibited
- Ki ([1]; at 1 μM of 1f): 3310 nM
- Ki ([1]; at 2 μM of 1f): 5190 nM
- Ki ([1]; at 4 μM of 1f): 3440 nM
- Vmax [1]: 0.0103 mM/min
- cellular tyrosinase activity [2]: significantly and concentration-dependently reduced this increase in tyrosinase activity

Compound: O=c1/c(=C/c2ccc(O)cc2O)sc2n1CCN=2 [Compound 1b, (Z)-2-(2,4-Dihydroxybenzylidene)-5,6-dihydroimidazo[2,1-b]thiazol-3(2H)-one]
- mode of mTYR inhibition [1]: competitive inhibitors; also recorded: competitively inhibited
- Ki ([1]; at 0.0625 μM of 1b): 15 nM
- Ki ([1]; at 0.125 μM of 1b): 13.3 nM
- Ki ([1]; at 0.25 μM of 1b): 17.2 nM
- Vmax [1]: 0.0126 mM/min
- cellular tyrosinase inhibition compared with kojic acid ([2]; 1b at 10 μM, α-MSH + IBMX): to the same extent as compound 1f or kojic acid at 20 μM
- cellular tyrosinase activity [2]: significantly and concentration-dependently reduced this increase in tyrosinase activity
